Source: patent US4429127A, “Quinoline carboxylic acid derivative” (Kyorin Pharmaceutical Co., Ltd., priority 1981, dated 1984)
Values after ≈ are worked out from the molar mass of the structure shown. Where two headings read alike, the source gives them in different places.

Experiments:
gram-negative bacteria [1] = assay: In vitro antibacterial activity against gram-negative bacteria (in words); assay type: cell-based; conditions: for Antibacterial activity on gram-negative bacteria, in words: in vitro
Method: (§1) The minimum inhibitory concentration (MIC) of the compound (I) was determined by an agar dilution technique (the standard method of Japan Society of Chemotherapy) against standard strains of gram-positive and gram-negative bacteria.

Shigella sonnei IID969 = assay: In vitro antibacterial activity (MIC, agar dilution); assay type: cell-based; conditions: inoculum 10^8 cells/ml
Method: as §1
(§2) Inoculum size: 10^8 cells/ml

[2] = system: Enterobacter cloacae IID977; assay: as above; assay type: cell-based; conditions: inoculum 10^8 cells/ml
Method: as §1, §2

P. morganii IID602 = assay: as above; assay type: cell-based; conditions: Morganella morganii, inoculum 10^8 cells/ml
Method: as §1, §2

P. aeruginosa IFO12689 = assay: as above; assay type: cell-based; conditions: Pseudomonas aeruginosa
Method: as §1, §2

E. coli NIHJ JC-2 = assay: as above; assay type: cell-based; conditions: Escherichia coli, NIHJJC2
Method: as §1, §2

Proteus vulgaris IFO3167 = assay: as above; assay type: cell-based
Method: as §1, §2

[3] = system: Citrobacter freundii IID976; assay: as above; assay type: cell-based; conditions: inoculum 10^8 cells/ml
Method: as §1, §2

[4] = system: Yersinia enterocolitica IID981; assay: as above; assay type: cell-based; conditions: inoculum 10^8 cells/ml
Method: as §1, §2

[5] = system: Bacillus subtilis PCI 219; assay: as above; assay type: cell-based; conditions: PCI219
Method: as §1, §2

[6] = system: Klebsiella pneumoniae IFO3512; assay: as above; assay type: cell-based
Method: as §1, §2

[7] = system: Staphylococcus aureus 209P; assay: as above; assay type: cell-based
Method: as §1, §2

S. pneumoniae IID552 = assay: as above; assay type: cell-based; conditions: Streptococcus pneumoniae
Method: as §1, §2

[8] = system: Streptococcus pyogenes IID692; assay: as above; assay type: cell-based
Method: as §1, §2

[9] = system: Acinetobacter enitratus IID876; assay: as above; assay type: cell-based; conditions: inoculum 10^8 cells/ml
Method: as §1, §2

[10] = system: Salmonella enteritidis IID604; assay: as above; assay type: cell-based; conditions: Salmonella enterica
Method: as §1, §2

[11] = system: S. aureus IID670 (Terajima); assay: as above; assay type: cell-based; conditions: Staphylococcus aureus
Method: as §1, §2

S. faecalis IID682 = assay: as above; assay type: cell-based; conditions: Enterococcus faecalis
Method: as §1, §2

[12] = system: Pseudomonas aeruginosa V-1; assay: as above; assay type: cell-based; conditions: V1
Method: as §1, §2

P. mirabilis IID994 = assay: as above; assay type: cell-based; conditions: Proteus mirabilis, inoculum 10^8 cells/ml
Method: as §1, §2

S. epidermidis IID866 = assay: as above; assay type: cell-based; conditions: Staphylococcus epidermidis, inoculum 10^8 cells/ml
Method: as §1, §2

[13] = system: Serratia marcescens IID618; assay: as above; assay type: cell-based; conditions: inoculum 10^8 cells/ml
Method: as §1, §2

[14] = system: Haemophilus influenzae IID986; assay: as above; assay type: cell-based
Method: as §1, §2

S. pyogenes S-8 = assay: as above; assay type: cell-based; conditions: Streptococcus pyogenes, S8
Method: as §1, §2

[15] = system: Alcaligenes faecalis 0104002; assay: as above; assay type: cell-based; conditions: inoculum 10^8 cells/ml
Method: as §1, §2

E. coli ATCC10536 = assay: as above; assay type: cell-based; conditions: Escherichia coli
Method: as §1, §2

gram-negative bacteria [16] = conditions: background; cited from earlier work
E. coli ML4707 [17] = assay: MIC against the infecting strain (Table 2); assay type: cell-based; conditions: Escherichia coli, ML4707
Method: as §1

[18] = system: Staphylococcus aureus Smith; assay: MIC against the infecting strain (Table 2); assay type: cell-based
Method: as §1

gram-positive bacteria [19] = assay: In vitro antibacterial activity against gram-positive bacteria (in words); assay type: cell-based
Method: as §1

gram-positive bacteria [20] = conditions: background; cited from earlier work
Streptococcus spp. = assay: In vitro antibacterial activity against Streptococcus spp. (in words); assay type: cell-based
Method: as §1

E. coli ML4707 [21] = assay: In vivo antibacterial activity, systemic infection in mice; parameters: species or system mice (male, ICR); conditions: Escherichia coli
Method: (§3) The in vivo antibacterial activity of the compound (I) was determined in systemic infection in mice. The systemic infections were produced in male mice ICR (body weight, 19±2 g) by inoculating intraperitoneally with Staphylococcus aureus Smith and E. coli ML4707. The compounds were administered orally in divided doses at 0 and 4 hrs. after infection. The therapeutic effect of drugs was judged from the number of mice surviving after 7 days of observation. A comparison of in vivo antibacterial activity was made on the basis of the […] effective dose (ED50) calculated by the method of Litchfield and Wilcoxon.

[22] = system: Staphylococcus aureus Smith; assay: as above; parameters: species or system mice (male, ICR); conditions: Staphylococcus aureus, 168 h
Method: as §3

[23] = P. aeruginosa IFO12689, inoculum 10^8 cells/ml, read-out: MIC
[24] = Proteus vulgaris IFO3167, inoculum 10^8 cells/ml, read-out: MIC
[25] = Bacillus subtilis PCI 219, inoculum 10^8 cells/ml, read-out: MIC
[26] = Staphylococcus aureus 209P, inoculum 10^8 cells/ml, read-out: MIC
[27] = S. pneumoniae IID552, inoculum 10^8 cells/ml, read-out: MIC
[28] = Streptococcus pyogenes IID692, inoculum 10^8 cells/ml, read-out: MIC
[29] = Salmonella enteritidis IID604, inoculum 10^8 cells/ml, read-out: MIC
[30] = S. aureus IID670 (Terajima), inoculum 10^8 cells/ml, read-out: MIC
[31] = S. faecalis IID682, inoculum 10^8 cells/ml, read-out: MIC
[32] = Pseudomonas aeruginosa V-1, inoculum 10^8 cells/ml, read-out: MIC
[33] = S. pyogenes S-8, inoculum 10^8 cells/ml, read-out: MIC

## CCn1cc(C(=O)O)c(=O)c2cc(F)c(N3CCNCC3)c(F)c21 [Metabolite, 1-ethyl-6,8-difluoro-1,4-dihydro-4-oxo-7-(1-piperazinyl)quinoline-3-carboxylic acid]
gram-negative bacteria [1]; general statement
  Activity of the metabolite against gram-negative bacteria, in words: superior activity against gram-negative bacteria
Shigella sonnei IID969
  MIC: 0.05 µg/mL (≈ 0.148 µM)
[2]
  MIC: 0.1 µg/mL (≈ 0.296 µM)
P. morganii IID602
  MIC: 0.1 µg/mL (≈ 0.296 µM)
P. aeruginosa IFO12689; [23]
  MIC: 1.56 µg/mL (≈ 4.62 µM)
E. coli NIHJ JC-2; E. coli NIHJ JC-2, inoculum 10^8 cells/ml, read-out: MIC
  MIC: 0.05 µg/mL (≈ 0.148 µM)
Proteus vulgaris IFO3167; [24]
  MIC: 0.05 µg/mL (≈ 0.148 µM)
[3]
  MIC: 0.1 µg/mL (≈ 0.296 µM)
[4]
  MIC: 0.1 µg/mL (≈ 0.296 µM)
[5]; [25]
  MIC: 0.2 µg/mL (≈ 0.593 µM)
[6]; Klebsiella pneumoniae IFO3512, inoculum 10^8 cells/ml, read-out: MIC
  MIC: 0.05 µg/mL (≈ 0.148 µM)
[7]; [26]
  MIC: 0.78 µg/mL (≈ 2.31 µM)
S. pneumoniae IID552; [27]
  MIC: 6.25 µg/mL (≈ 18.5 µM)
[8]; [28]
  MIC: 3.13 µg/mL (≈ 9.28 µM)
[9]
  MIC: 0.78 µg/mL (≈ 2.31 µM)
[10]; [29]
  MIC: 0.1 µg/mL (≈ 0.296 µM)
[11]; [30]
  MIC: 0.78 µg/mL (≈ 2.31 µM)
S. faecalis IID682; [31]
  MIC: 3.13 µg/mL (≈ 9.28 µM)
[12]; [32]
  MIC: 0.78 µg/mL (≈ 2.31 µM)
P. mirabilis IID994
  MIC: 0.05 µg/mL (≈ 0.148 µM)
S. epidermidis IID866
  MIC: 0.78 µg/mL (≈ 2.31 µM)
[13]
  MIC: 0.1 µg/mL (≈ 0.296 µM)
[14]; Haemophilus influenzae, IID986
  MIC: 0.025 µg/mL (≈ 0.0741 µM)
S. pyogenes S-8; [33]
  MIC: 12.5 µg/mL (≈ 37.1 µM)
[15]
  MIC: 0.78 µg/mL (≈ 2.31 µM)
E. coli ATCC10536; E. coli ATCC10536, inoculum 10^8 cells/ml, read-out: MIC
  MIC: 0.05 µg/mL (≈ 0.148 µM)

## CCn1cc(C(=O)O)c(=O)c2ccc(C)nc21 [NA, Nalidixic acid]
gram-negative bacteria [16]
  Effectiveness in therapy of infections due to gram-negative bacteria, in words: highly effective in the therapy of infections due to gram-negative bacteria
E. coli ML4707 [17]
  MIC: 3.13 µg/mL (≈ 13.5 µM)
[18]; Staphylococcus aureus
  MIC: 25 µg/mL (≈ 108 µM)
gram-positive bacteria [19]
  Antibacterial activity on gram-positive bacteria, in words: inactive on many strains of gram-positive bacteria
gram-positive bacteria [20]
  Activity against most gram-positive bacteria, in words: only weak activities against most gram-positive bacteria
gram-negative bacteria [1]
  Antibacterial activity on gram-negative bacteria, in words: exerted antibacterial activity mainly on gram-negative bacteria
Streptococcus spp.
  Susceptibility of Streptococcus spp., in words: not susceptible
Shigella sonnei IID969
  MIC: 1.56 µg/mL (≈ 6.72 µM)
P. aeruginosa IFO12689; IFO12689
  MIC: > 100 µg/mL
E. coli NIHJ JC-2
  MIC: 3.13 µg/mL (≈ 13.5 µM)
Proteus vulgaris IFO3167; Proteus vulgaris, IFO3167
  MIC: 3.13 µg/mL (≈ 13.5 µM)
[5]; Bacillus subtilis
  MIC: 6.25 µg/mL (≈ 26.9 µM)
[6]; Klebsiella pneumoniae, IFO3512
  MIC: 1.56 µg/mL (≈ 6.72 µM)
[7]; Staphylococcus aureus, 209P
  MIC: 100 µg/mL (≈ 431 µM)
S. pneumoniae IID552; IID552
  MIC: > 100 µg/mL
[8]; Streptococcus pyogenes, IID692
  MIC: > 100 µg/mL
[10]
  MIC: 12.5 µg/mL (≈ 53.8 µM)
[11]; IID670
  MIC: > 100 µg/mL
S. faecalis IID682; IID682
  MIC: > 100 µg/mL
[12]; Pseudomonas aeruginosa
  MIC: 100 µg/mL (≈ 431 µM)
[14]; Haemophilus influenzae, IID986
  MIC: 1.56 µg/mL (≈ 6.72 µM)
S. pyogenes S-8
  MIC: > 100 µg/mL
E. coli ATCC10536; ATCC10536
  MIC: 3.13 µg/mL (≈ 13.5 µM)
E. coli ML4707 [21]; ML4707, po, 168 h
  ED50: 38.3 mg/kg
[22]; po
  ED50: 635 mg/kg

## CCn1cc(C(=O)O)c(=O)c2cnc(N3CCNCC3)nc21 [PPA, Pipemidic acid]
gram-negative bacteria [16]
  Effectiveness in therapy of infections due to gram-negative bacteria, in words: highly effective in the therapy of infections due to gram-negative bacteria
E. coli ML4707 [17]
  MIC: 1.56 µg/mL (≈ 5.14 µM)
[18]; Staphylococcus aureus Smith, read-out: MIC
  MIC: 12.5 µg/mL (≈ 41.2 µM)
gram-positive bacteria [19]
  Antibacterial activity on gram-positive bacteria, in words: inactive on many strains of gram-positive bacteria
gram-positive bacteria [20]
  Activity against most gram-positive bacteria, in words: only weak activities against most gram-positive bacteria
gram-negative bacteria [1]
  Antibacterial activity on gram-negative bacteria, in words: exerted antibacterial activity mainly on gram-negative bacteria
Streptococcus spp.
  Susceptibility of Streptococcus spp., in words: not susceptible
Shigella sonnei IID969
  MIC: 1.56 µg/mL (≈ 5.14 µM)
P. aeruginosa IFO12689; [23]
  MIC: 25 µg/mL (≈ 82.4 µM)
E. coli NIHJ JC-2
  MIC: 1.56 µg/mL (≈ 5.14 µM)
Proteus vulgaris IFO3167; [24]
  MIC: 3.13 µg/mL (≈ 10.3 µM)
[5]; [25]
  MIC: 6.25 µg/mL (≈ 20.6 µM)
[6]; Klebsiella pneumoniae, IFO3512
  MIC: 1.56 µg/mL (≈ 5.14 µM)
[7]; [26]
  MIC: 25 µg/mL (≈ 82.4 µM)
S. pneumoniae IID552; [27]
  MIC: > 100 µg/mL
[8]; [28]
  MIC: > 100 µg/mL
[10]; [29]
  MIC: 12.5 µg/mL (≈ 41.2 µM)
[11]; [30]
  MIC: 25 µg/mL (≈ 82.4 µM)
S. faecalis IID682; [31]
  MIC: > 100 µg/mL
[12]; [32]
  MIC: 12.5 µg/mL (≈ 41.2 µM)
[14]; Haemophilus influenzae IID986, inoculum 10^8 cells/ml, read-out: MIC
  MIC: 3.13 µg/mL (≈ 10.3 µM)
S. pyogenes S-8; [33]
  MIC: > 100 µg/mL
E. coli ATCC10536; ATCC10536
  MIC: 1.56 µg/mL (≈ 5.14 µM)
E. coli ML4707 [21]; ML4707, 168 h, mice, oral at 0 and 4 hrs. after infection, challenge 1.2 × 10^7 cells/animal in saline, 7 days survival, read-out: ED50
  ED50: 38.9 mg/kg
[22]; mice, oral at 0 and 4 hrs. after infection, challenge 2.4 × 10^5 cells/animal in BHI containing mucin, 7 days survival, read-out: ED50
  ED50: 231 mg/kg

## CCn1cc(C(=O)O)c(=O)c2cnc(N3CCCC3)nc21 [piromidic acid]
gram-negative bacteria [16]
  Effectiveness in therapy of infections due to gram-negative bacteria, in words: highly effective in the therapy of infections due to gram-negative bacteria
gram-positive bacteria [20]
  Activity against most gram-positive bacteria, in words: only weak activities against most gram-positive bacteria
